Blank lines part the entries; values can stand above or below the compound they belong to. Active and inactive are the calls of the source. The calls are words filed in the database; no cut-off is given here. Residues, ends and D or L forms follow the SMILES beside them.
Experiments:
HepG2 [1] = experiment: Induction of insulin-stimulated 2-NBDG uptake in palmitic acid-induced insulin resistant human HepG2 cells at 1 umol/L preincubated for 24 hrs followed by insulin stimulation and measured after 30 mins by fluorescence assay; format: functional, cell-based
[2] = target: T1, Tyrosine-protein phosphatase non-receptor type 1 (Homo sapiens, UniProt P18031); experiment: Binding affinity to recombinant human N-terminal poly histidine-tagged PTP1B (Glu2 to Asn321 residues) expressed in Escherichia coli by surface plasmon resonance analysis
T1 sequence (P18031 whole entry): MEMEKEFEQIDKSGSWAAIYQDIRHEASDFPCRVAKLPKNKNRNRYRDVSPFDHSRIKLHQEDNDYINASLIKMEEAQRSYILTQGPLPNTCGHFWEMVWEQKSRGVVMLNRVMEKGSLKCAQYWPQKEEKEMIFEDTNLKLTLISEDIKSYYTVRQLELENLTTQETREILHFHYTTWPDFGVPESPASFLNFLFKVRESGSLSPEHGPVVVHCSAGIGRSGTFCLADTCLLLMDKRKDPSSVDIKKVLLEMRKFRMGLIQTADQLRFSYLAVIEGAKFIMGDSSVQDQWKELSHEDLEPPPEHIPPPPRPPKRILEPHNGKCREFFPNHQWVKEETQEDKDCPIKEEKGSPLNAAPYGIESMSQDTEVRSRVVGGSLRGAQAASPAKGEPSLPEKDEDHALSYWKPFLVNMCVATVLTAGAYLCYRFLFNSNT

[3] = target: Receptor-type tyrosine-protein phosphatase F (Homo sapiens) (UniProt P10586); experiment: Inhibition of LAR (unknown origin) at 1 umol/L using OMFP as substrate measured for 4 mins relative to control
Sequence of Receptor-type tyrosine-protein phosphatase F (Homo sapiens) (P10586 whole entry, the tested form may be a part): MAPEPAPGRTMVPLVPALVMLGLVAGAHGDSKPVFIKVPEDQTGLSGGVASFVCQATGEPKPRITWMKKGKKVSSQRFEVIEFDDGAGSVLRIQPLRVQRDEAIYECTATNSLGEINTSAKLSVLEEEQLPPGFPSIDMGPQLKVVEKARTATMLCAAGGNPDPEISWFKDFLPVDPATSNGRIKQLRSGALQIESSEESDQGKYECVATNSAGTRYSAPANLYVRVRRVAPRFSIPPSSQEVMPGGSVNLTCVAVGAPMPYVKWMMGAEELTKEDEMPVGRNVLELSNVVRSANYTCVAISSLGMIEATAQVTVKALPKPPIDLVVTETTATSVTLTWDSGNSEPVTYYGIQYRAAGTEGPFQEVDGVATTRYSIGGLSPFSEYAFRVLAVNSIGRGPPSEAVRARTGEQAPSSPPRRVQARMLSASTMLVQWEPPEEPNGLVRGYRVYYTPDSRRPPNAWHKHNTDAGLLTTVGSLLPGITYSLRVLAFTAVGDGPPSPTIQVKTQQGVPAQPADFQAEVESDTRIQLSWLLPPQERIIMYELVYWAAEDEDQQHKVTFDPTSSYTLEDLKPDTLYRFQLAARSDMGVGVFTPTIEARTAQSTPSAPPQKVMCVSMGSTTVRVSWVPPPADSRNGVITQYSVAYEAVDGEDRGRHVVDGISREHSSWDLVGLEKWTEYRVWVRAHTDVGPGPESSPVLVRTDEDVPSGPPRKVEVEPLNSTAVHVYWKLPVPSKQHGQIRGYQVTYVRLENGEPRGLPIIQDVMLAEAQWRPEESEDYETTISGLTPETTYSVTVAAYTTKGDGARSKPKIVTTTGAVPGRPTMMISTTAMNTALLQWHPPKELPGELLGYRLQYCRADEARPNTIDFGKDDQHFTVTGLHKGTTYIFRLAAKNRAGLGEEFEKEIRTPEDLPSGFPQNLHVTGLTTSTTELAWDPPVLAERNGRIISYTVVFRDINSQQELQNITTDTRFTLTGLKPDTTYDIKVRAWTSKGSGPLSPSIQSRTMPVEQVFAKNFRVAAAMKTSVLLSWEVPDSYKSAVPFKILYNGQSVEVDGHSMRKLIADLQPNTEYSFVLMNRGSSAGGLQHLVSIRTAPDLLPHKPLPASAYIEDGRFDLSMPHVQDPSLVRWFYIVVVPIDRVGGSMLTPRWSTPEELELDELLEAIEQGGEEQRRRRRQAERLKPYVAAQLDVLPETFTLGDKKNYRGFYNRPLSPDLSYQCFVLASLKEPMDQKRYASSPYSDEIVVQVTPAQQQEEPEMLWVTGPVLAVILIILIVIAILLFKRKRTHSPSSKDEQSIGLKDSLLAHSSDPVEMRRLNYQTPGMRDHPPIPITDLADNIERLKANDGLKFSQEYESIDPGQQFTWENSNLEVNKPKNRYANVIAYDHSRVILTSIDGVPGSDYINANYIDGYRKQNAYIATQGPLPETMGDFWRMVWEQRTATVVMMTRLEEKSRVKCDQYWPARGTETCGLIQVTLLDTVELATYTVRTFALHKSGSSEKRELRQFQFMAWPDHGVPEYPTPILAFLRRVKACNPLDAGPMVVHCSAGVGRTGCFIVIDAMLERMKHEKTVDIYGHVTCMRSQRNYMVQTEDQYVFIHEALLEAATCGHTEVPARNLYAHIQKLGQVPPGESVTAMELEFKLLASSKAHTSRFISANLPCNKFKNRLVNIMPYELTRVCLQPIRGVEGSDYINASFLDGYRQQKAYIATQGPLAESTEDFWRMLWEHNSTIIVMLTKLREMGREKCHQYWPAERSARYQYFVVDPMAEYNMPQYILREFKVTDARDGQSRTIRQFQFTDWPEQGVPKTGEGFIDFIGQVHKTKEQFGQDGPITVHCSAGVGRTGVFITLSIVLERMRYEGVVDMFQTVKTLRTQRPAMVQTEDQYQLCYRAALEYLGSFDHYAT

HepG2 [4] = experiment: Induction of insulin-stimulated 2-NBDG uptake in palmitic acid-induced insulin resistant human HepG2 cells at 1 to 10 umol/L preincubated for 24 hrs followed by insulin stimulation and measured after 30 mins by fluorescence assay; format: functional, cell-based
[5] = target: T2, Tyrosine-protein phosphatase non-receptor type 1 (Homo sapiens) (UniProt P18031); experiment: Inhibition of recombinant human N-terminal poly histidine-tagged PTP1B (Glu2 to Asn321 residues) expressed in Escherichia coli at 1 umol/L using pNPP as substrate measured for 4 mins relative to control
T2 sequence (whole entry): T1 sequence (P18031 whole entry)

[6] = target: T3, Tyrosine-protein phosphatase non-receptor type 11 (Homo sapiens) (UniProt Q06124); experiment: Inhibition of human GST-tagged SHP2 (1116 to 2162 residues) at 0.5 umol/L using OMFP as substrate measured for 4 mins relative to control
T3 sequence (whole entry): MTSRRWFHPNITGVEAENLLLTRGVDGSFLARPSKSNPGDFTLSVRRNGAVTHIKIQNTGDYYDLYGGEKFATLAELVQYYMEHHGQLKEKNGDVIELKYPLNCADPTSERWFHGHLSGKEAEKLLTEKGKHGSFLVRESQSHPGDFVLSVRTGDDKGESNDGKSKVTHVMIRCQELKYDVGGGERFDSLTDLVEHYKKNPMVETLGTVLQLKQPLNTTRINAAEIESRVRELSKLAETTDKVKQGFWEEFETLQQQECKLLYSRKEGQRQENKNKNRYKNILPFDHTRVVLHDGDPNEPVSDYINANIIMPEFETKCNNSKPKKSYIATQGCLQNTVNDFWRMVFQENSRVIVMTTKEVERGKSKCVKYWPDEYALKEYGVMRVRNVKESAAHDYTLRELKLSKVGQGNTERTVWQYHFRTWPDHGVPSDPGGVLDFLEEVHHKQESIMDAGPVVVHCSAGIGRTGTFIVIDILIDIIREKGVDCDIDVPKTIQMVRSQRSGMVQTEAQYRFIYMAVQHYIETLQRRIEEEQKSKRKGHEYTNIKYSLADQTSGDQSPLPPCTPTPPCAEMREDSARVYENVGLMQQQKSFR

[7] = target: T3, Tyrosine-protein phosphatase non-receptor type 11 (Homo sapiens); experiment: Inhibition of human GST-tagged SHP2 (1116 to 2162 residues) at 20 umol/L using OMFP as substrate measured for 4 mins relative to control
HepG2 [8] = experiment: Cytotoxicity against human HepG2 cells assessed as effect on cell viability at 0.1 to 10 umol/L after 24 hrs by MTT assay; format: cell-based; conditions: hepg2, 24 h
[9] = target: Tyrosine-protein phosphatase non-receptor type 6 (Homo sapiens) (UniProt P29350); experiment: Inhibition of SHP1 (unknown origin) at 5 umol/L using OMFP as substrate measured for 4 mins relative to control
Sequence of Tyrosine-protein phosphatase non-receptor type 6 (Homo sapiens) (P29350 whole entry, the tested form may be a part): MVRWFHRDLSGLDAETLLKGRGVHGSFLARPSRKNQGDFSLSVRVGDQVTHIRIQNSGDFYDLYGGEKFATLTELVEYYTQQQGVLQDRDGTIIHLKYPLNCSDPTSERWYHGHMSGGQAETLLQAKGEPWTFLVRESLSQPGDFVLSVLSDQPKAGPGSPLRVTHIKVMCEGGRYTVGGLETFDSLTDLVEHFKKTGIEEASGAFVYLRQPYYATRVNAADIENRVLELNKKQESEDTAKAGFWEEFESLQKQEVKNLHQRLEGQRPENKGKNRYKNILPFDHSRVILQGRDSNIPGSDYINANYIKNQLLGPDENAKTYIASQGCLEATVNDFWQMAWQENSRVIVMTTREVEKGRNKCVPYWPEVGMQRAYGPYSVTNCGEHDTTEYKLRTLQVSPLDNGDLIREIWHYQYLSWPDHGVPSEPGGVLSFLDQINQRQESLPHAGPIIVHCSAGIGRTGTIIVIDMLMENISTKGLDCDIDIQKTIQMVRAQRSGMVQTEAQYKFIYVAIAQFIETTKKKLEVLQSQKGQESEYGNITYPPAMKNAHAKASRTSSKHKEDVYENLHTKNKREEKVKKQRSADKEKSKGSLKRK

[10] = target: T4, Tyrosine-protein phosphatase non-receptor type 2 (Homo sapiens) (UniProt P17706); experiment: Inhibition of human GST-tagged TCPTP (41 to 1075 residues) expressed in Escherichia coli at 5 umol/L using pNPP as substrate measured for 4 mins relative to control
T4 sequence (whole entry): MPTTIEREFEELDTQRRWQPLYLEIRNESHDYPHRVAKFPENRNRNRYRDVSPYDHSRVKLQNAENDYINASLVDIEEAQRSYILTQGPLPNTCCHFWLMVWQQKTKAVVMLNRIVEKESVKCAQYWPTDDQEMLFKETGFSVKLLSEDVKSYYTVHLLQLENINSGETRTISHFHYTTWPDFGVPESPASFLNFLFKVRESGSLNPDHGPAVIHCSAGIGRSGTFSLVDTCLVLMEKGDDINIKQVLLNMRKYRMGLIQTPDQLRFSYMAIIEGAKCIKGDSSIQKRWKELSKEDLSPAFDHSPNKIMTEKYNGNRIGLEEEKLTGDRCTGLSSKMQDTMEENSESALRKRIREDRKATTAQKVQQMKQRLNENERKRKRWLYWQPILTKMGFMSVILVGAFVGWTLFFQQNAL

[11] = target: Tyrosine-protein phosphatase non-receptor type 6 (Homo sapiens) (UniProt P29350); experiment: Inhibition of SHP1 (unknown origin) at 2.5 umol/L using OMFP as substrate measured for 4 mins relative to control
[12] = target: Tyrosine-protein phosphatase non-receptor type 6 (Homo sapiens) (UniProt P29350); experiment: Inhibition of SHP1 (unknown origin) at 20 umol/L using OMFP as substrate measured for 4 mins relative to control
[13] = target: Receptor-type tyrosine-protein phosphatase F (Homo sapiens) (UniProt P10586); experiment: Inhibition of LAR (unknown origin) at 10 umol/L using OMFP as substrate measured for 4 mins relative to control
[14] = target: T4, Tyrosine-protein phosphatase non-receptor type 2 (Homo sapiens); experiment: Inhibition of human GST-tagged TCPTP (41 to 1075 residues) expressed in Escherichia coli at 2.5 umol/L using pNPP as substrate measured for 4 mins relative to control
[15] = target: T2, Tyrosine-protein phosphatase non-receptor type 1 (Homo sapiens); experiment: Binding affinity to recombinant human N-terminal poly histidine-tagged PTP1B (Glu2 to Asn321 residues) expressed in Escherichia coli assessed as dissociation rate constant by surface plasmon resonance analysis
[16] = target: Receptor-type tyrosine-protein phosphatase F (Homo sapiens) (UniProt P10586); experiment: Inhibition of LAR (unknown origin) at 5 umol/L using OMFP as substrate measured for 4 mins relative to control
[17] = target: T3, Tyrosine-protein phosphatase non-receptor type 11 (Homo sapiens); experiment: Inhibition of human GST-tagged SHP2 (1116 to 2162 residues) at 2.5 umol/L using OMFP as substrate measured for 4 mins relative to control
[18] = target: T2, Tyrosine-protein phosphatase non-receptor type 1 (Homo sapiens); experiment: Inhibition of recombinant human N-terminal poly histidine-tagged PTP1B (Glu2 to Asn321 residues) expressed in Escherichia coli at 0.5 umol/L using pNPP as substrate measured for 4 mins relative to control
[19] = target: T4, Tyrosine-protein phosphatase non-receptor type 2 (Homo sapiens); experiment: Inhibition of human GST-tagged TCPTP (41 to 1075 residues) expressed in Escherichia coli at 10 umol/L using pNPP as substrate measured for 4 mins relative to control
[20] = target: T2, Tyrosine-protein phosphatase non-receptor type 1 (Homo sapiens); experiment: Inhibition of recombinant human N-terminal poly histidine-tagged PTP1B (Glu2 to Asn321 residues) expressed in Escherichia coli at 40 umol/L using pNPP as substrate measured for 4 mins relative to control
[21] = target: T2, Tyrosine-protein phosphatase non-receptor type 1 (Homo sapiens); experiment: Inhibition of recombinant human N-terminal poly histidine-tagged PTP1B (Glu2 to Asn321 residues) expressed in Escherichia coli at 5 umol/L using pNPP as substrate measured for 4 mins relative to control
[22] = target: T3, Tyrosine-protein phosphatase non-receptor type 11 (Homo sapiens); experiment: Inhibition of human GST-tagged SHP2 (1116 to 2162 residues) at 1 umol/L using OMFP as substrate measured for 4 mins relative to control
[23] = target: T1, Tyrosine-protein phosphatase non-receptor type 1; experiment: Inhibition of recombinant human N-terminal poly histidine-tagged PTP1B (Glu2 to Asn321 residues) expressed in Escherichia coli using pNPP as substrate measured for 4 mins
[24] = target: T2, Tyrosine-protein phosphatase non-receptor type 1 (Homo sapiens); experiment: Inhibition of recombinant human N-terminal poly histidine-tagged PTP1B (Glu2 to Asn321 residues) expressed in Escherichia coli at 10 umol/L using pNPP as substrate measured for 4 mins relative to control
[25] = target: Receptor-type tyrosine-protein phosphatase F (Homo sapiens) (UniProt P10586); experiment: Inhibition of LAR (unknown origin) at 0.5 umol/L using OMFP as substrate measured for 4 mins relative to control
[26] = target: T4, Tyrosine-protein phosphatase non-receptor type 2 (Homo sapiens); experiment: Inhibition of human GST-tagged TCPTP (41 to 1075 residues) expressed in Escherichia coli at 1 umol/L using pNPP as substrate measured for 4 mins relative to control
[27] = target: T2, Tyrosine-protein phosphatase non-receptor type 1 (Homo sapiens); experiment: Inhibition of recombinant human N-terminal poly histidine-tagged PTP1B (Glu2 to Asn321 residues) expressed in Escherichia coli at 20 umol/L using pNPP as substrate measured for 4 mins relative to control
[28] = target: T3, Tyrosine-protein phosphatase non-receptor type 11 (Homo sapiens); experiment: Inhibition of human GST-tagged SHP2 (1116 to 2162 residues) at 10 umol/L using OMFP as substrate measured for 4 mins relative to control
HepG2 [29] = experiment: Inhibition of PTP1B expression in palmitic acid-induced insulin resistant human HepG2 cells at 0.1 to 10 uM by western blot analysis; format: functional, cell-based
[30] = target: Receptor-type tyrosine-protein phosphatase F (Homo sapiens) (UniProt P10586); experiment: Inhibition of LAR (unknown origin) at 2.5 umol/L using OMFP as substrate measured for 4 mins relative to control
[31] = target: Receptor-type tyrosine-protein phosphatase F (Homo sapiens) (UniProt P10586); experiment: Inhibition of LAR (unknown origin) at 20 umol/L using OMFP as substrate measured for 4 mins relative to control
[32] = target: T4, Tyrosine-protein phosphatase non-receptor type 2 (Homo sapiens); experiment: Inhibition of human GST-tagged TCPTP (41 to 1075 residues) expressed in Escherichia coli at 0.5 umol/L using pNPP as substrate measured for 4 mins relative to control
[33] = target: Tyrosine-protein phosphatase non-receptor type 6 (Homo sapiens) (UniProt P29350); experiment: Inhibition of SHP1 (unknown origin) at 1 umol/L using OMFP as substrate measured for 4 mins relative to control
[34] = target: T3, Tyrosine-protein phosphatase non-receptor type 11 (Homo sapiens); experiment: Inhibition of human GST-tagged SHP2 (1116 to 2162 residues) at 5 umol/L using OMFP as substrate measured for 4 mins relative to control
[35] = target: Tyrosine-protein phosphatase non-receptor type 6 (Homo sapiens) (UniProt P29350); experiment: Inhibition of SHP1 (unknown origin) at 0.5 umol/L using OMFP as substrate measured for 4 mins relative to control
[36] = target: T2, Tyrosine-protein phosphatase non-receptor type 1 (Homo sapiens); experiment: Binding affinity to recombinant human N-terminal poly histidine-tagged PTP1B (Glu2 to Asn321 residues) expressed in Escherichia coli assessed as association rate constant by surface plasmon resonance analysis
[37] = target: T2, Tyrosine-protein phosphatase non-receptor type 1 (Homo sapiens); experiment: Inhibition of recombinant human N-terminal poly histidine-tagged PTP1B (Glu2 to Asn321 residues) expressed in Escherichia coli at 2.5 umol/L using pNPP as substrate measured for 4 mins relative to control
[38] = target: T4, Tyrosine-protein phosphatase non-receptor type 2 (Homo sapiens); experiment: Inhibition of human GST-tagged TCPTP (41 to 1075 residues) expressed in Escherichia coli at 20 umol/L using pNPP as substrate measured for 4 mins relative to control
[39] = target: Tyrosine-protein phosphatase non-receptor type 6 (Homo sapiens) (UniProt P29350); experiment: Inhibition of SHP1 (unknown origin) at 10 umol/L using OMFP as substrate measured for 4 mins relative to control

Structure (SMILES): CN(CCOc1ccc(CC2SC(=O)NC2=O)cc1)c1ccccn1 (centres undefined)
- Activity (HepG2 [1]): Active

- Kd [2]: 8.38 nM
- inhibition [3]: 3.88%
- inhibition [5]: 47.2%
- inhibition [6]: 0.96%
- inhibition [7]: 10.6%
- inhibition [9]: 2.22%
- inhibition [10]: 8.63%
- inhibition [11]: 2.88%
- inhibition [12]: 9.22%
- inhibition [13]: 3.36%
- inhibition [14]: 8.22%
- Kdiss [15]: 1.82 ×10⁻⁴ /s
- inhibition [16]: 1.52%
- inhibition [17]: 3.52%
- inhibition [18]: 8.68%
- inhibition [19]: 12.2%
- inhibition [20]: 98%
- inhibition [21]: 89.3%
- inhibition [22]: 2.02%
- IC50 [23]: 1200 nM
- inhibition [24]: 92%
- inhibition [25]: 2.02%
- inhibition [26]: 6.22%
- inhibition [27]: 93.7%
- inhibition [28]: 2.77%
- inhibition [30]: 2.33%
- inhibition [31]: 1.73%
- inhibition [32]: 5.25%
- inhibition [33]: 1.36%
- inhibition [34]: 2.83%
- inhibition [35]: 2.03%
- Ka [36]: 2.17 ×10⁴ /Ms
- inhibition [37]: 80.6%
- inhibition [38]: 35.2%
- inhibition [39]: 3.89%
Structure (SMILES): CCCCCCCCCCCCCCCC(=O)N[C@H](C(=O)N[C@@H](C)C(=O)N[C@@H](CCC(N)=O)C(=O)N[C@@H](CCC(=O)O)C(=O)N[C@@H](CC(C)C)C(=O)N[C@@H](CCCNC(=N)N)C(=O)N[C@@H](CCCNC(=N)N)C(=O)N[C@H](C(=O)NCC(=O)N[C@@H](CC(=O)O)C(=O)N[C@@H](CCC(=O)O)C(=O)N[C@@H](Cc1ccccc1)C(N)=O)[C@@H](C)CC)[C@@H](C)CC (HELM PEPTIDE1{[CCCCCCCCCCCCCCCC(=O)[*:2]].I.A.Q.E.L.R.R.I.G.D.E.F.[am]}$$$$V2.0)
- Activity (HepG2 [4]): Active
- Activity (HepG2 [8]): Non-Toxic
- inhibition (HepG2 [29]): Active

Source: ChEMBL document CHEMBL4371021, “BH3 mimetics derived from Bim-BH3 domain core region show PTP1B inhibitory activity” (Bioorg Med Chem Lett, 2019)
